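Exposure lasted 48 hours, with cells grown in 96-well plates and compounds tested at five concentrations. GI50 marks 50% less growth.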 Calls of active or inactive are those of the source. No stated cut-off is given here; in the data, active = GI50 up to about 1.1 µM and inactive = higher.
What was measured:
Test in all cases: NCI-60 cell line screen, 48 h
[1] = test system: SNB-78
[2] = test system: DMS-114
[3] = test system: OVCAR-3
[4] = test system: NCI-H460
[5] = test system: RXF 393
[6] = test system: DLD-1
[7] = test system: EKVX
[8] = test system: NCI-H522
[9] = test system: NCI-H226
[10] = test system: HOP-18
[11] = test system: UO-31
[12] = test system: COLO 205
[13] = test system: UACC-257
[14] = test system: Malme-3M

Compound	GI50 [1]	GI50 [2]	GI50 [3]	GI50 [4]	GI50 [5]	GI50 [6]	GI50 [7]	GI50 [8]	GI50 [9]	GI50 [10]	GI50 [11]	GI50 [12]	GI50 [13]	GI50 [14]
CCOC(=O)Cc1csc(Nc2ccc(OCC)cc2)n1	> 100 µM (inactive)	69.2 µM (inactive)	86.3 µM (inactive)	> 100 µM (inactive)	> 100 µM (inactive)	> 100 µM (inactive)	> 100 µM (inactive)	> 100 µM (inactive)	> 100 µM (inactive)	> 100 µM (inactive)	> 100 µM (inactive)	> 100 µM (inactive)	> 100 µM (inactive)	> 100 µM (inactive)
O=C1C2c3[nH]c4ccccc4c3[C@@H]3CCCCCCCCCCC3C2C(=O)N1c1ccccc1 (stereo partly specified)	8.53 µM (inactive)	16.9 µM (inactive)	16 µM (inactive)	17.3 µM (inactive)	14.8 µM (inactive)	24.5 µM (inactive)	55.1 µM (inactive)	–	33.5 µM (inactive)	41.5 µM (inactive)	32.9 µM (inactive)	23 µM (inactive)	–	–
O=C(/C=C/c1c(O)ccc2ccccc12)c1ccccc1	> 100 µM (inactive)	> 100 µM (inactive)	> 100 µM (inactive)	> 100 µM (inactive)	> 100 µM (inactive)	85.7 µM (inactive)	> 100 µM (inactive)	> 100 µM (inactive)	> 100 µM (inactive)	36.8 µM (inactive)	> 100 µM (inactive)	> 100 µM (inactive)	> 100 µM (inactive)	> 100 µM (inactive)
CC(C)c1ccc(/C=C(\NC(=O)c2ccccc2)c2nc3ccccc3[nH]2)cc1	42.9 µM (inactive)	25.3 µM (inactive)	37.3 µM (inactive)	59.4 µM (inactive)	36.5 µM (inactive)	30.3 µM (inactive)	34.7 µM (inactive)	26.7 µM (inactive)	55.8 µM (inactive)	26.4 µM (inactive)	38.7 µM (inactive)	35.8 µM (inactive)	35.2 µM (inactive)	79.3 µM (inactive)
COc1ccc(C2=Nc3ccccc3NC(=O)C2)cc1	25.2 µM (inactive)	20.7 µM (inactive)	64 µM (inactive)	31.1 µM (inactive)	22.3 µM (inactive)	62.8 µM (inactive)	> 100 µM (inactive)	38.9 µM (inactive)	> 100 µM (inactive)	> 100 µM (inactive)	34.4 µM (inactive)	38.3 µM (inactive)	> 100 µM (inactive)	92 µM (inactive)
CC1(C)CCc2cc3c(cc2O1)OCC1c2cc4c(cc2OC31)OCO4 (stereo unspecified)	–	> 100 µM (inactive)	> 100 µM (inactive)	54.5 µM (inactive)	> 100 µM (inactive)	> 100 µM (inactive)	> 100 µM (inactive)	> 100 µM (inactive)	> 100 µM (inactive)	> 100 µM (inactive)	> 100 µM (inactive)	> 100 µM (inactive)	28 µM (inactive)	32.7 µM (inactive)
C[N+]1(C)C/C(=C\c2ccncc2)C(=O)/C(=C/c2ccncc2)C1	> 100 µM (inactive)	> 100 µM (inactive)	> 100 µM (inactive)	> 100 µM (inactive)	> 100 µM (inactive)	> 100 µM (inactive)	> 100 µM (inactive)	19.6 µM (inactive)	–	> 100 µM (inactive)	> 100 µM (inactive)	> 100 µM (inactive)	> 100 µM (inactive)	> 100 µM (inactive)
COc1ccc(/C=C/C(=O)c2c(-c3ccccc3)nn(C)c(=O)c2N2CCCCC2)cc1	–	14.6 µM (inactive)	–	17.8 µM (inactive)	12 µM (inactive)	16.1 µM (inactive)	11.7 µM (inactive)	10.7 µM (inactive)	–	20.1 µM (inactive)	13.9 µM (inactive)	16.7 µM (inactive)	–	–
Cc1cc2c(c(N)c1C)C(=O)c1ccccc1C2=O	> 100 µM (inactive)	32.1 µM (inactive)	–	34.5 µM (inactive)	29 µM (inactive)	62.7 µM (inactive)	–	21.7 µM (inactive)	–	1.56 µM (inactive)	10.6 µM (inactive)	> 100 µM (inactive)	87.1 µM (inactive)	42.3 µM (inactive)
CCCC(=O)OC[n+]1ccc2c(C)c3[nH]c4ccccc4c3c(C)c2c1	1.1 µM (active)	0.641 µM (active)	1.2 µM (inactive)	0.0208 µM (active)	0.067 µM (active)	–	–	0.832 µM (active)	1.11 µM (active)	1.09 µM (active)	1.87 µM (inactive)	0.705 µM (active)	1.35 µM (inactive)	1.33 µM (inactive)
Nc1c(-c2nc3ccccc3s2)[n+]([O-])c2ccccc2[n+]1[O-]	63 µM (inactive)	34.2 µM (inactive)	23.3 µM (inactive)	28.1 µM (inactive)	–	33 µM (inactive)	51.6 µM (inactive)	22 µM (inactive)	54.7 µM (inactive)	23.5 µM (inactive)	21.8 µM (inactive)	37.1 µM (inactive)	30.8 µM (inactive)	30.4 µM (inactive)
Cc1cc2cc(Cl)ccc2nc1C(=O)c1ccccc1	> 100 µM (inactive)	> 100 µM (inactive)	> 100 µM (inactive)	–	22.5 µM (inactive)	> 100 µM (inactive)	–	> 100 µM (inactive)	> 100 µM (inactive)	> 100 µM (inactive)	> 100 µM (inactive)	> 100 µM (inactive)	32.4 µM (inactive)	> 100 µM (inactive)
O=C1CC23CC(=O)CC2(C1)c1ccccc1C3=O (stereo unspecified)	> 100 µM (inactive)	> 100 µM (inactive)	> 100 µM (inactive)	> 100 µM (inactive)	40.6 µM (inactive)	> 100 µM (inactive)	> 100 µM (inactive)	> 100 µM (inactive)	> 100 µM (inactive)	> 100 µM (inactive)	> 100 µM (inactive)	> 100 µM (inactive)	> 100 µM (inactive)	> 100 µM (inactive)
COc1ccc(-c2nnc(-c3c(C)n(C)n(-c4ccccc4)c3=O)o2)cc1	68.7 µM (inactive)	> 100 µM (inactive)	> 100 µM (inactive)	> 100 µM (inactive)	> 100 µM (inactive)	> 100 µM (inactive)	> 100 µM (inactive)	> 100 µM (inactive)	> 100 µM (inactive)	> 100 µM (inactive)	> 100 µM (inactive)	> 100 µM (inactive)	> 100 µM (inactive)	> 100 µM (inactive)
COC(=O)c1onc(-c2c(OC)cc(OC)cc2OC)c1C(=O)OC	> 100 µM (inactive)	> 100 µM (inactive)	> 100 µM (inactive)	> 100 µM (inactive)	> 100 µM (inactive)	> 100 µM (inactive)	> 100 µM (inactive)	> 100 µM (inactive)	> 100 µM (inactive)	> 100 µM (inactive)	> 100 µM (inactive)	> 100 µM (inactive)	> 100 µM (inactive)	> 100 µM (inactive)
C[C@H]1CCC2C(CN3CCCCC3)C(=O)OC2[C@]2(C)C(=O)CC(N3CCCCC3)C12O (stereo partly specified)	4.41 µM (inactive)	3.2 µM (inactive)	4.48 µM (inactive)	12.8 µM (inactive)	1.86 µM (inactive)	3.34 µM (inactive)	4 µM (inactive)	1.38 µM (inactive)	0.083 µM (active)	29 µM (inactive)	13.7 µM (inactive)	4.69 µM (inactive)	3.1 µM (inactive)	9.44 µM (inactive)
c1ccc(C2C3=C(Nc4ncnn42)c2ccccc2C3)cc1 (stereo unspecified)	> 100 µM (inactive)	7.1 µM (inactive)	8.93 µM (inactive)	12.1 µM (inactive)	21.1 µM (inactive)	14.1 µM (inactive)	87.5 µM (inactive)	6.14 µM (inactive)	–	56.1 µM (inactive)	48.2 µM (inactive)	11 µM (inactive)	> 100 µM (inactive)	15.6 µM (inactive)
C/C(=N/NC(=O)c1ccccc1O)c1ccc(/C(C)=N\NC(=O)c2ccccc2O)c2nc3cc(C)c(C)cc3nc12	> 100 µM (inactive)	> 100 µM (inactive)	> 100 µM (inactive)	> 100 µM (inactive)	> 100 µM (inactive)	> 100 µM (inactive)	> 100 µM (inactive)	> 100 µM (inactive)	> 100 µM (inactive)	44.2 µM (inactive)	> 100 µM (inactive)	> 100 µM (inactive)	> 100 µM (inactive)	> 100 µM (inactive)
C=C1CC(c2ccc(O)c(OC)c2)Oc2c(OC)cccc21 (stereo unspecified)	33.2 µM (inactive)	20.4 µM (inactive)	33.9 µM (inactive)	35.1 µM (inactive)	–	37 µM (inactive)	40.6 µM (inactive)	10.7 µM (inactive)	> 100 µM (inactive)	> 100 µM (inactive)	60.3 µM (inactive)	> 100 µM (inactive)	39.3 µM (inactive)	–
C/C(CN1C(=O)c2ccccc2C1=O)=N\NS(=O)(=O)c1ccc(F)cc1	> 100 µM (inactive)	> 100 µM (inactive)	> 100 µM (inactive)	> 100 µM (inactive)	–	> 100 µM (inactive)	> 100 µM (inactive)	> 100 µM (inactive)	> 100 µM (inactive)	> 100 µM (inactive)	> 100 µM (inactive)	> 100 µM (inactive)	> 100 µM (inactive)	> 100 µM (inactive)
Cc1noc(C)c1CCCOC1COc2ccccc2OCCOCCOc2ccccc2OC1	> 100 µM (inactive)	> 100 µM (inactive)	> 100 µM (inactive)	–	> 100 µM (inactive)	> 100 µM (inactive)	> 100 µM (inactive)	> 100 µM (inactive)	> 100 µM (inactive)	> 100 µM (inactive)	> 100 µM (inactive)	> 100 µM (inactive)	> 100 µM (inactive)	80.4 µM (inactive)

From ChEMBL document CHEMBL1201862, “PubChem BioAssay data set” (2004)
